For the experiment, the system named is Kuramochi cells. The experiment can be described thus: BrdU Cell Proliferation Assay. In kind it is cell-based. Particulars: read-out: BrdU - KURAMOCHI.1: IC50. On the procedure:
A BrdU assay was used as a measure of proliferation based on the DNA replication process of proliferating cells. BrdU, a pyrimidine analog, is added to the cell culture and incorporated into the DNA of proliferating cells. The presence of the BrdU analog was then measured through a colorimetric ELISA. After fixation and permeabilization of cells, peroxidase-conjugated antibody recognizing BrdU is added and allowed to incubate, followed by thorough washing to remove unbound antibody. In order to quantify the amount of bound antibody, peroxidase substrate is added and produces a color that can be measured at 450 nm.
On day −1, Kuramochi cells (Sekisui XenoTech JCRB0098) were seeded at 2,000 cells/well in columns 2-12 of a 96 well plate (Corning, CLS3596) in 150 μL media and allowed to adhere overnight at 37 degree with 5% CO2.
On day 0, the source plate was prepared by adding 10 mM compounds and performing 3-fold serial dilutions for a 10-point dose response of each compound. Using a multichannel pipette, 2 μL of the contents of the source plate were stamped into an intermediate plate with 500 μL of RPMI 1640 Media, GlutaMAX Supplement (Life Technologies, 61870127) in each well of a Nunc 96 DeepWell™ plate, non-treated 96 DeepWell plate, 2 mL/well, sterile, natural, 60/cs (Sigma Z717274) and mixed thoroughly. 50 μL from each well of this intermediate plate were added to 4 wells of a 96-well plate with previously seeded Kuramochi cells.
On day 4, the plates were developed using the BrdU ELISA Cell Proliferation Assay according to manufacturer's instructions (Roche, 11647229001). Briefly, BrdU was diluted 1:100 in Gibco®, OptiMEM® and 20 μL/well was added, shaken for 10 minutes at 350 rpm, and then returned to the incubator for 1 hour. Following incubation, the medium was discarded, and the cells were fixed by adding 200 μL of Fix/Denature solution. The anti-BrdU peroxidase antibody was diluted 1:1000 in OptiMEM, added at 100 μL/well, and incubated while shaking (350 rpm) for one hour. Three washes with PBS were performed to remove any unbound antibody, followed by the addition of 100 μL of substrate solution to each well. 25 μL/well of 1M sulfuric acid solution was then added to halt the reaction, and plates were read out using an Envision spectrophotometer (Perkin Elmer) set to read 450 nm absorbance. Background absorbance values from empty wells were subtracted from all samples and then normalized to DMSO treated wells.

Some results are limits rather than exact numbers.

`C[C@@H](OCC1CCC(F)(F)CC1)[C@H](NC(=O)[C@@H]1CN(C(=O)c2cnn(Cc3ccc(F)cc3)c2)CC12CN(C(=O)C1(C(F)(F)F)CC1)C2)C(=O)N1CCC(F)(F)CC1` [I-190A]: the IC50 (commonly the concentration at which inhibition is half-maximal) is at most 0.5 µM. For the compound `CNC(=O)[C@@H](NC(=O)[C@@H]1CN(C(=O)c2cnn(Cc3ccccc3)c2)CC12CN(C(=O)C1(C3CC3)CC1)C2)[C@@H](C)OCc1ccccc1` [I-114A], the concentration for half-maximal inhibition (IC50) was over 10 µM. The value for `CNC(=O)[C@@H](NC(=O)[C@@H]1CN(C(=O)c2cnc(C(F)(F)F)s2)CC12CN(C(=O)[C@H]1CC1(C)C)C2)[C@@H](C)OCC1CCCCC1` [I-161A] was over 10 µM.

For `C[C@@H](OCc1ccccc1)C(NC(=O)C1CN(C(=O)c2cnn(Cc3ccccc3)c2)CC12CN(C(=O)[C@H]1CC1(C)C)C2)C(=O)NCCOCCOCCO` (stereo partly drawn) [I-21], the concentration for half-maximal inhibition (IC50) is over 10 µM.

As to `CNC(=O)[C@@H](NC(=O)[C@H]1CN(C(=O)c2cnn(Cc3ccccc3)c2)CC12CN(C(=O)[C@H]1CC1(C)C)C2)[C@@H](C)OCC1CCCCC1` [I-123B], the IC50 was over 10 µM. The value for `CNC(=O)[C@@H](NC(=O)[C@H]1CN(C(=O)c2sc(COC)nc2C)CC12CN(C(=O)[C@H]1CC1(C)C)C2)[C@@H](C)OCC1CCCCC1` [I-162B] was over 10 µM; that for `CNC(=O)[C@@H](NC(=O)[C@@H]1CN(C(=O)c2cnn(CC3CCNCC3)c2)CC12CN(C(=O)[C@H]1CC1(C)C)C2)[C@@H](C)OCc1ccccc1` [I-19A] was over 10 µM; that for `CC1(C)C[C@@H]1C(=O)N1CC2(CN(C(=O)c3cnn(Cc4ccccc4)c3)C[C@H]2C(=O)N2CC[C@H](OCC3CCCCC3)C2)C1` [I-256] was 5 to 10 µM. The value for `CNC(=O)[C@@H](NC(=O)[C@H]1CN(C(=O)c2scnc2C)CC12CN(C(=O)[C@H]1CC1(C)C)C2)[C@@H](C)OCC1CCCCC1` [I-160B] was over 10 µM; that for `CNC(=O)[C@@H](NC(=O)[C@H]1CN(C(=O)c2cnn(Cc3ccccc3)c2)CC12CN(C(=O)C1(C3CC3)CC1)C2)[C@@H](C)OCc1ccccc1` [I-114B] was over 10 µM.

For `CC1(C)C[C@@H]1C(=O)N1CC2(CN(C(=O)c3cnn(Cc4ccccc4)c3)C[C@H]2C(=O)N2CCC[C@@H](OCC3CCCCC3)C2)C1` [I-254], the concentration for half-maximal inhibition (IC50) is over 10 µM. In the case of `CCCCC1CC1C(=O)N1CC2(CN(C(=O)c3cnn(Cc4ccccc4)c3)C[C@@H]2C(=O)N[C@H](C(=O)NC)[C@@H](C)OCc2ccccc2)C1` (stereo partly drawn) [I-94B] it was over 10 µM; in that of `C[C@@H](OCc1ccccc1)[C@H](NC(=O)[C@H]1CN(C(=O)c2cnn(Cc3ccccc3)c2)CC12CN(C(=O)[C@H]1CC1(C)C)C2)C(N)=O` [I-176B], over 10 µM; in that of `CC1(C)C[C@@H]1C(=O)N1CC2(CN(C(=O)c3cnn(Cc4ccccc4)c3)CC2C(=O)Nc2ncc(-c3ccccc3)o2)C1` (stereo partly drawn) [I-93], over 10 µM. In the case of `CC1(C)C[C@@H]1C(=O)N1CC2(CN(C(=O)c3cnn(Cc4ccccc4)c3)C[C@H]2C(=O)N2CCN(CC3CCCCC3)CC2)C1` [I-237] it was over 10 µM; in that of `CNC(=O)[C@@H](NC(=O)[C@H]1CN(C(=O)c2cnn(CC3CC3)c2)CC12CN(C(=O)CC1CC1)C2)[C@@H](C)OCc1ccccc1` [I-53B], over 10 µM. As to `CC1(C)C[C@@H]1C(=O)N1CC2(CN(C(=O)c3cnn(Cc4ccccc4)c3)C[C@@H]2C(=O)Nc2ccc(-c3ccccc3)cc2)C1` [I-81B], the IC50 is 5 to 10 µM. The value for `CC1(C)C[C@@H]1C(=O)N1CC2(CN(C(=O)c3cnn(Cc4ccccc4)c3)C[C@H]2C(=O)N2CCC(OCc3ccccc3)CC2)C1` [I-214] was over 10 µM; that for `CC1(C)C[C@@H]1C(=O)N1CC2(CN(C(=O)c3cnn(Cc4ccccc4)c3)C[C@H]2C(=O)N[C@H]2CCCN(C(=O)C3CCCCC3)C2)C1` [I-182] was 5 to 10 µM.

Consider `CCCCC1CC1C(=O)N1CC2(CN(C(=O)c3cnn(Cc4ccccc4)c3)C[C@H]2C(=O)N[C@H](C(=O)NC)[C@@H](C)OCc2ccccc2)C1` (stereo partly drawn) [I-94A], for which the 50% inhibitory concentration (IC50) was over 10 µM. The value for `CNC(=O)[C@@H](NC(=O)[C@@H]1CN(C(=O)c2n[nH]c3ccccc23)CC12CN(C(=O)[C@H]1CC1(C)C)C2)[C@@H](C)OCc1ccccc1` [I-112A] was over 10 µM; that for `CNC(=O)[C@@H](NC(=O)[C@@H]1CN(Cc2cnc[nH]2)CC12CN(C(=O)[C@H]1CC1(C)C)C2)[C@@H](C)OCc1ccccc1` [I-77A, (S)-6-((1H-imidazol-5-yl)methyl)-N-((2S,3R)-3-(benzyloxy)-1-(methylamino)-1-oxobutan-2-yl)-2-((S)-2,2-dimethylcyclopropane-1-carbonyl)-2,6-diazaspiro[3.4]octane-8-carboxamide] was over 10 µM.

Take `CNC(=O)[C@@H](NC(=O)[C@H]1CN(C(=O)c2cncs2)CC12CN(C(=O)C(C)(C)C)C2)[C@@H](C)OCC1CCCCC1` [I-186B]: the IC50 is over 10 µM. The value for `CNC(=O)[C@@H](NC(=O)[C@@H]1CN(C(=O)c2cnc(C)s2)CC12CN(C(=O)[C@H]1CC1(C)C)C2)[C@@H](C)OCC1CCCCC1` [I-156A] was 5 to 10 µM; that for `CNC(=O)[C@@H](NC(=O)[C@H]1CN(C(=O)c2cnn(CC3CCOCC3)c2)CC12CN(C(=O)[C@H]1CC1(C)C)C2)[C@@H](C)OCc1ccccc1` [I-95B] was over 10 µM; that for `COCCNC(=O)[C@@H]1CN(C(=O)c2cnn(Cc3ccccc3)c2)CC12CN(C(=O)[C@H]1CC1(C)C)C2` [I-122A] was over 10 µM. As for `CC1(C)C[C@@H]1C(=O)N1CC2(CN(C(=O)c3cnn(Cc4ccccc4)c3)C[C@H]2C(=O)N[C@H]2CCCN(CC3CCCCC3)C2)C1` [I-183], the 50% inhibitory concentration (IC50) was over 10 µM. The value for `CNC(=O)[C@@H](NC(=O)[C@H]1CN(C(=O)c2cnn(Cc3ccccc3)c2)CC12CN(C(=O)[C@H]1CC1(C)C)C2)[C@@H](C)OCC(C)(C)C` [I-130B] was over 10 µM; that for `CNC(=O)[C@@H](NC(=O)[C@@H]1CN(C(=O)C2CCOCC2)CC12CN(C(=O)[C@H]1CC1(C)C)C2)[C@@H](C)OCc1ccccc1` [I-38A] was over 10 µM. In the case of `CNC(=O)[C@H](CSCc1ccccc1)NC(=O)[C@@H]1CN(C(=O)c2cnn(Cc3ccccc3)c2)CC12CN(C(=O)[C@H]1CC1(C)C)C2` [I-225] it was over 10 µM; in that of `CNC(=O)[C@@H](NC(=O)[C@@H]1CN(C(=O)c2scnc2C)CC12CN(C(=O)[C@H]1CC1(C)C)C2)[C@@H](C)OCC1CCCCC1` [I-160A], 0.5 to 5 µM; in that of `CNC(=O)[C@@H](NC(=O)[C@@H]1CN(C(=O)c2cn[nH]c2)CC12CN(C(=O)CC1CC1)C2)[C@@H](C)OCc1ccccc1` [I-41A, (S)—N-((2S,3R)-3-(benzyloxy)-1-(methylamino)-1-oxobutan-2-yl)-2-(2-cyclopropylacetyl)-6-(1H-pyrazole-4-carbonyl)-2,6-diazaspiro[3.4]octane-8-carboxamide], over 10 µM. In the case of `CC1(C)C[C@@H]1C(=O)N1CC2(CN(C(=O)c3cnn(Cc4ccccc4)c3)C[C@H]2C(=O)N[C@@H]2CCCN(CC3CCCCC3)C2)C1` [I-212] it was over 10 µM; in that of `CNC(=O)[C@@H](NC(=O)[C@H]1CN(C(=O)c2cnn(Cc3ccccc3)c2)CC12CN(C(=O)CC(C)(C)C)C2)[C@@H](C)OCc1ccccc1` [I-62B], over 10 µM. Turning to `CC1(C)C[C@@H]1C(=O)N1CC2(CN(C(=O)c3cnn(Cc4ccccc4)c3)C[C@H]2C(=O)N2CCCC(Cc3ccccc3)C2)C1` (stereo partly drawn) [I-91A], the IC50 is over 10 µM. For the compound `CNC(=O)[C@@H](NC(=O)[C@@H]1CN(C(=O)c2cnn(CC3CCN(C)CC3)c2)CC12CN(C(=O)[C@H]1CC1(C)C)C2)[C@@H](C)OCc1ccccc1` [I-23A], the IC50 was over 10 µM.

The record behind these values is patent US12065445B2, “CDK2 inhibitors and methods of using the same” (Cedilla Therapeutics, Inc., priority 2021, dated 2024).
